Assay results as given in the kinase profiling compilation of Christmann-Franck et al. (2016).
Values joined by “and” are separate entries in the source; they are usually repeats but may differ in a detail not shown here. Equal entries are not always repeated.

Columns and labels:
Assay in all cases: KINOMEscan competition binding
Settings in all cases: compound 1.0 µM
[1] = molecular target: STK17B (human) (UniProt O94768)
[2] = molecular target: CDC42BPB (human) (UniProt Q9Y5S2)
[3] = molecular target: CDKL5 (human) (UniProt O76039)
Chain of CDKL5 (human) (O76039 whole entry, looked up): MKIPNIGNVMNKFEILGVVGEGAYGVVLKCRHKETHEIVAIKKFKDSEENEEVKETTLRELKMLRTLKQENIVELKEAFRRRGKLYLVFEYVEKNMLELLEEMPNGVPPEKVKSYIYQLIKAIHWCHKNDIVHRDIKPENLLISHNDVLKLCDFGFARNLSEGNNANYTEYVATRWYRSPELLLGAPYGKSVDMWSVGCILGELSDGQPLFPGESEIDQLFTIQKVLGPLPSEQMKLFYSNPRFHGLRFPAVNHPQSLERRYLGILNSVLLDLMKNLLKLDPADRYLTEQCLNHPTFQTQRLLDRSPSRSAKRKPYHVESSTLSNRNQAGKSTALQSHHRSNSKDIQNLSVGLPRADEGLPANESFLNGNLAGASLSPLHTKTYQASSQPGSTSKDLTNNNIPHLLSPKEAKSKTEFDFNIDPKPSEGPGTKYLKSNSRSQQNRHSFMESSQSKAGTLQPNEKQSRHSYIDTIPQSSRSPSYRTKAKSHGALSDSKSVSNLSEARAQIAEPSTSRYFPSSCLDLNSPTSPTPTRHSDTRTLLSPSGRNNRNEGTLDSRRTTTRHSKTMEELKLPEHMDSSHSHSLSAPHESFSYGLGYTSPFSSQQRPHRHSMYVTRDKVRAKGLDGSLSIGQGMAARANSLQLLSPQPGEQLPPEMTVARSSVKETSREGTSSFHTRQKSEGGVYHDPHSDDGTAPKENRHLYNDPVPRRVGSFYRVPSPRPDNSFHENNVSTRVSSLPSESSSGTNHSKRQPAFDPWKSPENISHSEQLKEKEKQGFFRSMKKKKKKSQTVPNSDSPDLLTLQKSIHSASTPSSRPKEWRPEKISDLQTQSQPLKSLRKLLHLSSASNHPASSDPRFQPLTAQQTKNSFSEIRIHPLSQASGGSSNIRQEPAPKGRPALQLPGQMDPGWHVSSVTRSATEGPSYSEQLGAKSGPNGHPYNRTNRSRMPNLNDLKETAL

[4] = molecular target: EPHA1 (human) (UniProt P21709)
[5] = molecular target: ACVRL1 (human) (UniProt P37023)
[6] = molecular target: TEC (human) (UniProt P42680)
[7] = molecular target: CSK (human) (UniProt P41240)
[8] = molecular target: EPHA8 (human) (UniProt P29322)
[9] = molecular target: STK10 (human) (UniProt O94804)
[10] = molecular target: GRK1 (human) (UniProt Q15835)
[11] = molecular target: CDK5 (human) (UniProt Q00535)
Chain of CDK5 (human) (Q00535 whole entry, looked up): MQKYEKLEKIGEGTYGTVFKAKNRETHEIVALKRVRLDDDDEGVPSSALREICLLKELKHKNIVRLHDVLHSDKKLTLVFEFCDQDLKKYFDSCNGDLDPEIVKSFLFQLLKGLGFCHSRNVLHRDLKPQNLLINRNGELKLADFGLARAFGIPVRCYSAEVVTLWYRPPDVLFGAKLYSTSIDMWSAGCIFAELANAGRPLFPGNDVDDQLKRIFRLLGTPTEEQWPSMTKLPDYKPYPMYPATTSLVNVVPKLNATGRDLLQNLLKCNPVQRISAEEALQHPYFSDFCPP

[12] = molecular target: CDC42BPA (human) (UniProt Q5VT25)
[13] = test system: EGFR (human), P00533 [L861Q]
[14] = molecular target: ULK1 (human) (UniProt O75385)
[15] = molecular target: TNK2 (human) (UniProt Q07912)
[16] = molecular target: TAOK3 (human) (UniProt Q9H2K8)
[17] = molecular target: SIK1 (human) (UniProt P57059)
Chain of SIK1 (human) (P57059 whole entry, looked up): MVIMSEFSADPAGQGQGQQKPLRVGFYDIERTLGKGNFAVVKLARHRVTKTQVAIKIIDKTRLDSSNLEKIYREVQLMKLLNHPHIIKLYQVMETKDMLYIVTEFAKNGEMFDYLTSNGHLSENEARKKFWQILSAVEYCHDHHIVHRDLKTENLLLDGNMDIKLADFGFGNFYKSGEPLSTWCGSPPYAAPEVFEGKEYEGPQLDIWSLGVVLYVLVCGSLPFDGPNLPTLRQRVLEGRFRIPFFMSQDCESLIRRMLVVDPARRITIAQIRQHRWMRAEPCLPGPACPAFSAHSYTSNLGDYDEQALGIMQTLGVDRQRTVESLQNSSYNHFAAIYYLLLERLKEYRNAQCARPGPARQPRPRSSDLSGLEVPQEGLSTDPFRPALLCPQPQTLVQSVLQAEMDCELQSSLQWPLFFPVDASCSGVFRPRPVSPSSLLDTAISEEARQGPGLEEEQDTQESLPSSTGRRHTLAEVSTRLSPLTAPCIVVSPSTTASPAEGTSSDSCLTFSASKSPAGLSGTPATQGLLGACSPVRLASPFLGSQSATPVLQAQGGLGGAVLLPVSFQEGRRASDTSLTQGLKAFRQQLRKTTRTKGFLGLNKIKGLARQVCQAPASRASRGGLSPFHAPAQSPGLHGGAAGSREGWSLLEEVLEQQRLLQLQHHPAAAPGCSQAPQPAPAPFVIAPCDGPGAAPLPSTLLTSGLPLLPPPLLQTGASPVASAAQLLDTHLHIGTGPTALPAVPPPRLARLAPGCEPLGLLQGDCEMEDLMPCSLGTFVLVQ

[18] = test system: EGFR (human), P00533 [P753S; 747-752 del]
[19] = test system: ABL1 (human), P00519 [F317L]
[20] = molecular target: BRSK2 (human) (UniProt Q8IWQ3)
[21] = molecular target: EPHA6 (human) (UniProt Q9UF33)
[22] = molecular target: MARK1 (human) (UniProt Q9P0L2)
[23] = molecular target: AKT3 (human) (UniProt Q9Y243)
[24] = molecular target: DDR2 (human) (UniProt Q16832)
[25] = test system: ABL1 (human), P00519 [Y253F]
[26] = molecular target: ACVR1B (human) (UniProt P36896)
Chain of ACVR1B (human) (P36896 whole entry, looked up): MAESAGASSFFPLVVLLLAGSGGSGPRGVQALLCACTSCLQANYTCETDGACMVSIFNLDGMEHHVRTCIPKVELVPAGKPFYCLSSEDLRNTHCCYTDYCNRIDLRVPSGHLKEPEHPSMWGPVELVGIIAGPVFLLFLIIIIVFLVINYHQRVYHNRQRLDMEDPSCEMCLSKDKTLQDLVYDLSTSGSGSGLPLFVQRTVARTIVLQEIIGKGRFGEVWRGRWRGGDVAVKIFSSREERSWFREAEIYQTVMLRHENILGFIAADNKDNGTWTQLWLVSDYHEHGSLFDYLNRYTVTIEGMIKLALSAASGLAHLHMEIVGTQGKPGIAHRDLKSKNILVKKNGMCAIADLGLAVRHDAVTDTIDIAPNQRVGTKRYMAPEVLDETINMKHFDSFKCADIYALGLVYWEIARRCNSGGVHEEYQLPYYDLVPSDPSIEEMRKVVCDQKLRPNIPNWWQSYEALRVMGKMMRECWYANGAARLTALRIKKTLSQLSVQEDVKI

[27] = molecular target: CDK16 (human) (UniProt Q00536)
[28] = molecular target: CAMK1G (human) (UniProt Q96NX5)
Chain of CAMK1G (human) (Q96NX5 whole entry, looked up): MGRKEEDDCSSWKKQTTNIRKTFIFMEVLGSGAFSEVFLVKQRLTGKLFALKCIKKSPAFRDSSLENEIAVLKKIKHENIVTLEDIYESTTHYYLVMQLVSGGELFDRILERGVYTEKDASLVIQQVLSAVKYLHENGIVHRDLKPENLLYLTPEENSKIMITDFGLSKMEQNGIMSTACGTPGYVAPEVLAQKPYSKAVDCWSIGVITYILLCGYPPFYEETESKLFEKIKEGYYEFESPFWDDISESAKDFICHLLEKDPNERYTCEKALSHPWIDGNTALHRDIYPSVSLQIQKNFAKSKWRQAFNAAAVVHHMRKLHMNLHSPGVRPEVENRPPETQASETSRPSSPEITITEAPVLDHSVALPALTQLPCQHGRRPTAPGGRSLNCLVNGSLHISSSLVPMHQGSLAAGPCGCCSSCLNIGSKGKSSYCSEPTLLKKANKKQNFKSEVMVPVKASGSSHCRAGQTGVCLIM

[29] = molecular target: TBK1 (human) (UniProt Q9UHD2)
[30] = molecular target: TYRO3 (human) (UniProt Q06418)
[31] = molecular target: TAOK1 (human) (UniProt Q7L7X3)
Chain of TAOK1 (human) (Q7L7X3 whole entry, looked up): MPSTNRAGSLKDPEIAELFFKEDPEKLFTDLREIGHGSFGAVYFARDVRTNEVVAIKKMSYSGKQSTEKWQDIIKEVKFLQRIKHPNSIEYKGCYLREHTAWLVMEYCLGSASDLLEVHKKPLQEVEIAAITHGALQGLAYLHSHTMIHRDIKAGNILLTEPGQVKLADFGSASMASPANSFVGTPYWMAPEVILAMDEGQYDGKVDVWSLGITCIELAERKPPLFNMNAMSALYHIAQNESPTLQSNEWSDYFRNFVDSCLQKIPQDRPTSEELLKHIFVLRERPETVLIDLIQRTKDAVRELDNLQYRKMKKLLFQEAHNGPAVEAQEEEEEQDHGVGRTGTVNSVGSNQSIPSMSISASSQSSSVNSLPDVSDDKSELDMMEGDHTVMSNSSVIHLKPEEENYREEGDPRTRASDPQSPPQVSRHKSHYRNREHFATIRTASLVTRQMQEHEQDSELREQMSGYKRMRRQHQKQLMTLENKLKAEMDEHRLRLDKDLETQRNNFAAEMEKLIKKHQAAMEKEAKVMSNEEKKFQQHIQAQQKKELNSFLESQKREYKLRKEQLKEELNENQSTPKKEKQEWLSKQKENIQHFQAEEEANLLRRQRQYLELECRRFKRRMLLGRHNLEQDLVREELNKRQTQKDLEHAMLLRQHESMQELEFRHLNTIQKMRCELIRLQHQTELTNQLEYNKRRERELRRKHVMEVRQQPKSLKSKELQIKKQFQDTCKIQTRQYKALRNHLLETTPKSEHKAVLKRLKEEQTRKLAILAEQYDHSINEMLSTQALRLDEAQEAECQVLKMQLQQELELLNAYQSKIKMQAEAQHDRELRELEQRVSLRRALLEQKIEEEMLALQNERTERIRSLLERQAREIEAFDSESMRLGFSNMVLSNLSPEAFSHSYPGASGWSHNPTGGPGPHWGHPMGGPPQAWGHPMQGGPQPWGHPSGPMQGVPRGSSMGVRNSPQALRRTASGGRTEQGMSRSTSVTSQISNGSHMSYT

[32] = molecular target: MLTK (human) (UniProt Q9NYL2)
[33] = molecular target: CAMK2G (human) (UniProt Q13555)
[34] = molecular target: MAP3K12 (human) (UniProt Q12852)
[35] = molecular target: PRPF4B (human) (UniProt Q13523)
[36] = molecular target: CAMKK1 (human) (UniProt Q8N5S9)
[37] = molecular target: MST1R (human) (UniProt Q04912)
[38] = molecular target: AXL (human) (UniProt P30530)
Chain of AXL (human) (P30530 whole entry, looked up): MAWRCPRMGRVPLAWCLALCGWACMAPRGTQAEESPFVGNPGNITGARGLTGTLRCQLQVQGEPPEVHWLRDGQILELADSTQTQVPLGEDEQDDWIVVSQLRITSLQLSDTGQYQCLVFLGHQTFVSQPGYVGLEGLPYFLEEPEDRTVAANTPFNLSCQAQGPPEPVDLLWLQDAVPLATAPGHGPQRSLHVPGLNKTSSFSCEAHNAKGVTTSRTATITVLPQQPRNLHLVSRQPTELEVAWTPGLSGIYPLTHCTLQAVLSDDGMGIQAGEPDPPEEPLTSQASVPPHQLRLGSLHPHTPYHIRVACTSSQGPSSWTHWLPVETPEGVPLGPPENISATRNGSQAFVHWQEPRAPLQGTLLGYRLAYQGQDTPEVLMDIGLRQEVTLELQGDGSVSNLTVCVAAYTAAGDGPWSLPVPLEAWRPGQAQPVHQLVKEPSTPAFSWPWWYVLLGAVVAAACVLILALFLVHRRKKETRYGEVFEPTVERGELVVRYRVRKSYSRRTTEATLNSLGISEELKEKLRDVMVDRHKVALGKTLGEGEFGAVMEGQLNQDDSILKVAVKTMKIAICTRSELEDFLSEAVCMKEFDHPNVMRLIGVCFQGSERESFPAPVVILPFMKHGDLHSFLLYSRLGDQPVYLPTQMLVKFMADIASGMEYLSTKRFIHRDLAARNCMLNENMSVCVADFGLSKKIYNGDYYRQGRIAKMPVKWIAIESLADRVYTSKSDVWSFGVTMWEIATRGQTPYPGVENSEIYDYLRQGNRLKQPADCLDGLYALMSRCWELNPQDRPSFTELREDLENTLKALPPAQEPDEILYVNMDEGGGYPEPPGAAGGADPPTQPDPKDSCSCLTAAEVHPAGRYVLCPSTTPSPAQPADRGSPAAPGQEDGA

[39] = molecular target: CSNK1G1 (human) (UniProt Q9HCP0)
[40] = molecular target: MATK (human) (UniProt P42679)

In the case of `Nc1cc(C(F)(F)F)c(-c2cc(N3CCOCC3)nc(N3CCOCC3)n2)cn1`, the inhibition of binding [1] is reported as 0%, the inhibition of binding [2] is reported as 0% and the inhibition of binding [3] is reported as 50%. For the same compound, the inhibition of binding [4] was 2%, the inhibition of binding [5] was 38% and the inhibition of binding [6] was 3%. It also gave an inhibition of binding [7] of 8%, an inhibition of binding [8] of 0% and an inhibition of binding [9] of 4%. For the same compound, the inhibition of binding [10] was 0%, the inhibition of binding [11] was 0% and the inhibition of binding [12] was 0%. For the same compound, the inhibition of binding [13] was 0%, the inhibition of binding [14] was 0% and the inhibition of binding [15] was 0%. It also gave an inhibition of binding [16] of 10%, an inhibition of binding [17] of 0% and an inhibition of binding [18] of 1%. For the same compound, the inhibition of binding [19] was 0%, the inhibition of binding [20] was 0% and the inhibition of binding [21] was 3%. For the same compound, the inhibition of binding [22] was 0%, the inhibition of binding [23] was 0% and the inhibition of binding [24] was 19%. For the same compound, the inhibition of binding [25] was 0%, the inhibition of binding [26] was 3% and the inhibition of binding [27] was 0%. For the same compound, the inhibition of binding [28] was 0%, the inhibition of binding [29] was 0% and the inhibition of binding [30] was 0%. For the same compound, the inhibition of binding [31] was 0% and 2%, the inhibition of binding [32] was 0% and the inhibition of binding [33] was 0%. It also gave an inhibition of binding [34] of 0%, an inhibition of binding [35] of 4% and an inhibition of binding [36] of 0%. It also gave an inhibition of binding [37] of 0%, an inhibition of binding [38] of 7% and an inhibition of binding [39] of 25%. It also gave an inhibition of binding [40] of 28%.
